Laboratory results from patent publication US7317000B2, “Glucose-dependent insulins” (Novo Nordisk A/S, priority 2001, dated 2008).

Molecular target: solubilized human insulin receptor (Homo sapiens, UniProt P06213)
Experiment: Insulin receptor binding by competition with 125I-TyrA14 human insulin (scintillation counting)
Conditions: antibody-captured solubilized receptor on Scintiplates

Sequence of solubilized human insulin receptor (P06213 28-758 limits assumed): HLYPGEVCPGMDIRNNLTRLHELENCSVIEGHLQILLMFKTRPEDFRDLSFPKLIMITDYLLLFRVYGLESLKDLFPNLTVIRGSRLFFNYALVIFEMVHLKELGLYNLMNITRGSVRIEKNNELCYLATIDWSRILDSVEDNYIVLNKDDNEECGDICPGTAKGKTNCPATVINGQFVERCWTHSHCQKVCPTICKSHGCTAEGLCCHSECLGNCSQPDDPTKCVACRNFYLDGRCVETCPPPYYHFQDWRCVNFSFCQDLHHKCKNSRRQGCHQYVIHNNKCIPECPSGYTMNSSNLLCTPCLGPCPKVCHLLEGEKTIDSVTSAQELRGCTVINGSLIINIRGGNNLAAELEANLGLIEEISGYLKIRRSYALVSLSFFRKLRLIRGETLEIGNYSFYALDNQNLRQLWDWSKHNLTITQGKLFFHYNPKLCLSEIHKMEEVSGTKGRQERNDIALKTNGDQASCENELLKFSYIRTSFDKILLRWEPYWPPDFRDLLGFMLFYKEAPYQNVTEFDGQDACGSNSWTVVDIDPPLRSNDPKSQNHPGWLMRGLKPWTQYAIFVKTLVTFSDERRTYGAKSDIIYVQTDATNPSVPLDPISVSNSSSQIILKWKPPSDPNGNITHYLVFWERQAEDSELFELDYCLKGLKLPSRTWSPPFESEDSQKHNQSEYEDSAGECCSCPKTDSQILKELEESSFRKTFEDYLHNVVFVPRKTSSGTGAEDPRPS
Sequence of solubilized human insulin receptor (P06213 763-1382 partner limits assumed): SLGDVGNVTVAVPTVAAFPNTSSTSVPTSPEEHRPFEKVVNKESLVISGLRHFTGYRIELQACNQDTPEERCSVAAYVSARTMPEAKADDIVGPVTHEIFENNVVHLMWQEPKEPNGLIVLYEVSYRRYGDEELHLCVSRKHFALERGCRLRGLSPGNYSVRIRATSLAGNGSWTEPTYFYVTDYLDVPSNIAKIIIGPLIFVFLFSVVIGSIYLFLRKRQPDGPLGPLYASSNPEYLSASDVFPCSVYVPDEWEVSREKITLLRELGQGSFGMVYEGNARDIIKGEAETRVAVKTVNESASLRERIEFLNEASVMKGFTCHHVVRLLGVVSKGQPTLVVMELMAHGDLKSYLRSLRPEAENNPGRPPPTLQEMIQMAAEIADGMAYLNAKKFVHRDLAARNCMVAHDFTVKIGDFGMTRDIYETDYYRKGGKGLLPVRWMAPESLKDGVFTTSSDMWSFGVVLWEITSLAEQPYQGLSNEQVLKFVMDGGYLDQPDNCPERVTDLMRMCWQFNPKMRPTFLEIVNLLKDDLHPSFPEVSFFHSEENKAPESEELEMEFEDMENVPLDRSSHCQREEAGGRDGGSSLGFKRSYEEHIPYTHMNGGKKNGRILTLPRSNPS

| Substance | Kd [nM] |
| --- | --- |
| Lys^B29-(N^ε(γ-L-glutamyl-α-D-glucamide, N^α-(3-borono-5-nitro-benzoyl)) des(B30) human insulin [Compound 10] | 0.016 |
| Lys^B29(N^ε-(4-carboxyphenylalanine-N-methyl-glucamide), N^α-(4-borono-phenylsulfonyl)) des(B30), human insulin [Compound 23] | 0.015 |
